Where two headings read alike, the source gives them in different places.
How the values were obtained:
[1] = system: AsPC-1 (K-Ras G12D); assay: Potency assay: pERK; type: cell-based; details: Homo sapiens
Description: The purpose of this assay was to measure the ability of test compounds to inhibit K-Ras in cells. Activated K-Ras induces increased phosphorylation of ERK at Threonine 202 and Tyrosine 204 (pERK). This procedure measures a decrease in cellular pERK in response to test compounds. The procedure described below in NCI-H358 cells is applicable to K-Ras G12C.
Note: This protocol may be executed substituting other cell lines to characterize inhibitors of other RAS variants, including, for example, AsPC-1 (K-Ras G12D), Capan-1 (K-Ras G12V), or NCI-H1355 (K-Ras G13C).
NCI-H358 cells were grown and maintained using media and procedures recommended by the ATCC. On the day prior to compound addition, cells were plated in 384-well cell culture plates (40 μl/well) and grown overnight in a 37° C., 5% CO2 incubator. Test compounds were prepared in 10, 3-fold dilutions in DMSO, with a high concentration of 10 mM. On the day of assay, 40 nL of test compound was added to each well of cell culture plate using an Echo550 liquid handler (LabCyte®). Concentrations of test compound were tested in duplicate. After compound addition, cells were incubated 4 hours at 37° C., 5% CO2. Following incubation, culture medium was removed and cells were washed once with phosphate buffered saline.
In some experiments, cellular pERK level was determined using the AlphaLISA SureFire Ultra p-ERK1/2 Assay Kit (PerkinElmer). Cells were lysed in 25 μL lysis buffer, with shaking at 600 RPM at room temperature. Lysate (10 μL) was transferred to a 384-well Opti-plate (PerkinElmer) and 5 μL acceptor mix was added. […] Signal was read on an Envision plate reader (PerkinElmer) using standard AlphaLISA settings. […] Signal was plotted vs. the decadal logarithm of compound concentration, and IC50 was determined by fitting a 4-parameter sigmoidal concentration response model.
In other experiments, cellular pERK was determined by In-Cell Western. […] Signal was plotted vs. the decadal logarithm of compound concentration, and IC50 was determined by fitting a 4-parameter sigmoidal concentration response model.

[2] = system: SW1573; details: Canon et al., Nature 575:217-223 (2019); cited from earlier work
[3] = ASPC1, read-out: IC50 in the pERK potency assay

`CCn1c(-c2cccnc2[C@H](C)OC)c2c3cc(ccc31)-c1cc(cc(C(F)F)c1)C[C@H](NC(=O)[C@H](C(C)C)N1CC[C@]3(CCN(C(=O)[C@@H]4N[C@@H]4C4CC4)C3)C1)C(=O)N1CCC[C@H](N1)C(=O)OCC(C)(C)C2` [Example A17] showed an IC50 [1, 3] greater than 8 µM.
In the case of `C=CC(=O)N1CCN(c2nc(=O)n(-c3c(C)ccnc3C(C)C)c3nc(-c4c(O)cccc4F)c(F)cc23)[C@@H](C)C1` [AMG510], the “sensitivity of cell line to RAS inhibitor” value [2] is given as “insensitive”.
`CCn1c(-c2cccnc2[C@H](C)OC)c2c3cc(ccc31)-c1csc(n1)C[C@H](NC(=O)[C@H](C1CCCC1)N1CC[C@]3(CCN(C(=O)[C@@]4(C)CN4)C3)C1)C(=O)N1CCC[C@H](N1)C(=O)OCC(C)(C)C2` [Example A5] gave an IC50 [1, 3] greater than 8 µM.
For `CCn1c(-c2cccnc2[C@H](C)OC)c2c3cc(ccc31)-c1cc(cc(C(F)F)c1)C[C@H](NC(=O)[C@H](C1CCCC1)N1CC[C@]3(CCN(C(=O)[C@@H]4N[C@@H]4C4CC4)C3)C1)C(=O)N1CCC[C@H](N1)C(=O)OCC(C)(C)C2` [Example A18], the IC50 ([1]; ASPC1, AsPC-1 (K-Ras G12D) cells, read-out: IC50 in the pERK potency assay) was greater than 8 µM.

Source: patent US12252497B2, “Ras inhibitors” (Revolution Medicines, Inc., priority 2021, dated 2025)
